Assay results published in PubChem BioAssay (NCI).
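Abbreviation: GI50, concentration required for 50% inhibition of growth. TGI marks complete inhibition of growth.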

How the values were obtained:
Assay in all cases: inhibition of tumour cell growth, NCI panel, 384-well format
HOP-92 NSCLC = test system: HOP-92 NSCLC
SN12C renal = test system: SN12C renal
MDA-MB-468 breast = test system: MDA-MB-468 breast
M14 melanoma = test system: M14 melanoma
MDA-MB-231 breast = test system: MDA-MB-231 breast
DU-145 prostate = test system: DU-145 prostate
HT29 colon = test system: HT29 colon
HS 578T breast = test system: HS 578T breast
EKVX NSCLC = test system: EKVX NSCLC
COLO 205 colon = test system: COLO 205 colon
SK-MEL-28 melanoma = test system: SK-MEL-28 melanoma
OVCAR-3 ovarian = test system: OVCAR-3 ovarian
HCT-116 colon = test system: HCT-116 colon
T-47D breast = test system: T-47D breast
SW-620 colon = test system: SW-620 colon
UO-31 renal = test system: UO-31 renal
TK-10 renal = test system: TK-10 renal
PC-3 prostate = test system: PC-3 prostate
IGROV1 ovarian = test system: IGROV1 ovarian
UACC-62 melanoma = test system: UACC-62 melanoma
UACC-257 melanoma = test system: UACC-257 melanoma
SK-MEL-5 melanoma = test system: SK-MEL-5 melanoma
NCI-H322M lung = test system: NCI-H322M lung
RPMI-8226 leukemia = test system: RPMI-8226 leukemia
SR leukemia = test system: SR leukemia
A498 renal = test system: A498 renal
NCI/ADR-RES ovarian = test system: NCI/ADR-RES ovarian
HOP-62 NSCLC = test system: HOP-62 NSCLC
SF-539 CNS = test system: SF-539 CNS
MOLT-4 leukemia = test system: MOLT-4 leukemia
NCI-H226 lung = test system: NCI-H226 lung
SF-268 CNS = test system: SF-268 CNS
OVCAR-8 ovarian = test system: OVCAR-8 ovarian
HCT-15 colon = test system: HCT-15 colon
MCF7 breast = test system: MCF7 breast
U251 glioblastoma = test system: U251 glioblastoma
MALME-3M melanoma = test system: MALME-3M melanoma
786-0 renal = test system: 786-0 renal
SF-295 CNS = test system: SF-295 CNS
OVCAR-5 ovarian = test system: OVCAR-5 ovarian
HCC-2998 colon = test system: HCC-2998 colon
CAKI-1 renal = test system: CAKI-1 renal
ACHN renal = test system: ACHN renal
RXF 393 renal = test system: RXF 393 renal
SK-OV-3 ovarian = test system: SK-OV-3 ovarian
NCI-H522 lung = test system: NCI-H522 lung
NCI-H23 lung = test system: NCI-H23 lung
OVCAR-4 ovarian = test system: OVCAR-4 ovarian
SNB-75 CNS = test system: SNB-75 CNS
KM12 colon = test system: KM12 colon
LOX IMVI melanoma = test system: LOX IMVI melanoma
NCI-H460 NSCLC = test system: NCI-H460 NSCLC
HL-60(TB) leukemia = test system: HL-60(TB) leukemia
A549 NSCLC = test system: A549 NSCLC
SNB-19 CNS = test system: SNB-19 CNS
BT-549 breast = test system: BT-549 breast
MDA-MB-435 melanoma = test system: MDA-MB-435 melanoma
SK-MEL-2 melanoma = test system: SK-MEL-2 melanoma
CCRF-CEM leukemia = test system: CCRF-CEM leukemia

## CN(C)C/C=C/C(=O)Nc1cc2c(Nc3ccc(F)c(Cl)c3)ncnc2cc1O[C@H]1CCOC1
HOP-92 NSCLC
  GI50: 499 nM
  TGI: 2510 nM
SN12C renal
  GI50: 316 nM
  TGI: 6530 nM
MDA-MB-468 breast
  GI50: < 10 nM
M14 melanoma
  GI50: 1310 nM
  TGI: 2590 nM
MDA-MB-231 breast
  GI50: 386 nM
  TGI: 1870 nM
DU-145 prostate
  GI50: 383 nM
  TGI: 3610 nM
HT29 colon
  GI50: 2000 nM
  TGI: 11400 nM
HS 578T breast
  GI50: 1450 nM
  TGI: 3140 nM
EKVX NSCLC
  GI50: < 10 nM
  TGI: 2160 nM
COLO 205 colon
  GI50: 2080 nM
  TGI: 10300 nM
SK-MEL-28 melanoma
  GI50: 1990 nM
  TGI: 5180 nM
OVCAR-3 ovarian
  GI50: 79.8 nM
  TGI: 928 nM
HCT-116 colon
  GI50: 551 nM
  TGI: 1950 nM
T-47D breast
  GI50: 17.1 nM
  TGI: 2540 nM
SW-620 colon
  GI50: 1800 nM
  TGI: 5100 nM
UO-31 renal
  GI50: 184 nM
  TGI: 10700 nM
TK-10 renal
  GI50: < 10 nM
  TGI: 11200 nM
PC-3 prostate
  GI50: 1570 nM
  TGI: 3580 nM
IGROV1 ovarian
  GI50: < 10 nM
  TGI: 1090 nM
UACC-62 melanoma
  GI50: 1370 nM
  TGI: 2780 nM
UACC-257 melanoma
  GI50: 1330 nM
  TGI: 2620 nM
SK-MEL-5 melanoma
  GI50: 1020 nM
  TGI: 2190 nM
NCI-H322M lung
  GI50: < 10 nM
  TGI: 13.1 nM
RPMI-8226 leukemia
  GI50: 1280 nM
  TGI: 2550 nM
SR leukemia
  GI50: 1210 nM
  TGI: 2450 nM
A498 renal
  GI50: 126 nM
  TGI: 1540 nM
NCI/ADR-RES ovarian
  GI50: 1400 nM
  TGI: 5410 nM
HOP-62 NSCLC
  GI50: 1910 nM
  TGI: 5050 nM
SF-539 CNS
  GI50: 1410 nM
  TGI: 2780 nM
MOLT-4 leukemia
  GI50: 232 nM
  TGI: 1260 nM
NCI-H226 lung
  GI50: 907 nM
  TGI: 2210 nM
SF-268 CNS
  GI50: 1390 nM
  TGI: 3910 nM
OVCAR-8 ovarian
  GI50: 1200 nM
  TGI: 2770 nM
HCT-15 colon
  GI50: 627 nM
  TGI: 2000 nM
MCF7 breast
  GI50: 1220 nM
  TGI: 2780 nM
U251 glioblastoma
  GI50: 1310 nM
  TGI: 4050 nM
MALME-3M melanoma
  GI50: 1420 nM
  TGI: 2730 nM
786-0 renal
  GI50: 763 nM
  TGI: 2190 nM
SF-295 CNS
  GI50: 3930 nM
  TGI: 14600 nM
OVCAR-5 ovarian
  GI50: 1050 nM
  TGI: 7640 nM
HCC-2998 colon
  GI50: 1340 nM
  TGI: 2810 nM
CAKI-1 renal
  GI50: 138 nM
  TGI: 1570 nM
ACHN renal
  GI50: < 10 nM
  TGI: 1420 nM
RXF 393 renal
  GI50: 226 nM
  TGI: 838 nM
SK-OV-3 ovarian
  GI50: 112 nM
  TGI: 8400 nM
NCI-H522 lung
  GI50: < 10 nM
  TGI: 34.4 nM
NCI-H23 lung
  GI50: 1320 nM
  TGI: 2780 nM
OVCAR-4 ovarian
  GI50: 2050 nM
  TGI: 6590 nM
SNB-75 CNS
  GI50: 429 nM
  TGI: 2960 nM
KM12 colon
  GI50: 1230 nM
  TGI: 3070 nM
LOX IMVI melanoma
  GI50: 1050 nM
  TGI: 2240 nM
NCI-H460 NSCLC
  GI50: 1790 nM
  TGI: 3800 nM
HL-60(TB) leukemia
  GI50: 340 nM
  TGI: 1300 nM
A549 NSCLC
  GI50: 436 nM
  TGI: 2330 nM
SNB-19 CNS
  GI50: 1910 nM
  TGI: 10600 nM
BT-549 breast
  GI50: 617 nM
  TGI: 1920 nM
MDA-MB-435 melanoma
  GI50: 2010 nM
  TGI: 9460 nM

## CC1=C(CO)C2=C(C)C3(CC3)[C@@](C)(O)C(=O)C2=C1
HOP-92 NSCLC
  GI50: 124 nM
  TGI: 445 nM
SN12C renal
  GI50: 231 nM
  TGI: 761 nM
MDA-MB-468 breast
  GI50: 45.1 nM
  TGI: 125 nM
M14 melanoma
  GI50: 234 nM
  TGI: 576 nM
MDA-MB-231 breast
  GI50: 203 nM
  TGI: 473 nM
DU-145 prostate
  GI50: 46.8 nM
  TGI: 305 nM
HT29 colon
  GI50: 184 nM
  TGI: 395 nM
HS 578T breast
  GI50: 325 nM
  TGI: 1070 nM
EKVX NSCLC
  GI50: 203 nM
  TGI: 452 nM
COLO 205 colon
  GI50: 132 nM
  TGI: 272 nM
SK-MEL-28 melanoma
  GI50: 251 nM
  TGI: 624 nM
OVCAR-3 ovarian
  GI50: 152 nM
  TGI: 312 nM
T-47D breast
  GI50: 159 nM
  TGI: 423 nM
SW-620 colon
  GI50: 1160 nM
  TGI: 3150 nM
PC-3 prostate
  GI50: 186 nM
  TGI: 404 nM
IGROV1 ovarian
  GI50: 163 nM
  TGI: 447 nM
UACC-62 melanoma
  GI50: 394 nM
  TGI: 1520 nM
UACC-257 melanoma
  GI50: 216 nM
  TGI: 465 nM
SK-MEL-5 melanoma
  GI50: 166 nM
  TGI: 376 nM
NCI-H322M lung
  GI50: 182 nM
  TGI: 369 nM
RPMI-8226 leukemia
  GI50: 5960 nM
  TGI: 18000 nM
SR leukemia
  GI50: 171 nM
  TGI: 361 nM
A498 renal
  GI50: 50.8 nM
  TGI: 367 nM
NCI/ADR-RES ovarian
  GI50: 222 nM
  TGI: 428 nM
HOP-62 NSCLC
  GI50: 159 nM
  TGI: 316 nM
SF-539 CNS
  GI50: 173 nM
  TGI: 313 nM
MOLT-4 leukemia
  GI50: 147 nM
  TGI: 336 nM
NCI-H226 lung
  GI50: 297 nM
  TGI: 793 nM
SF-268 CNS
  GI50: 143 nM
  TGI: 318 nM
OVCAR-8 ovarian
  GI50: 219 nM
  TGI: 527 nM
HCT-15 colon
  GI50: 188 nM
  TGI: 365 nM
MCF7 breast
  GI50: 184 nM
  TGI: 496 nM
U251 glioblastoma
  GI50: 203 nM
  TGI: 410 nM
MALME-3M melanoma
  GI50: 152 nM
  TGI: 296 nM
786-0 renal
  GI50: 180 nM
  TGI: 381 nM
SK-MEL-2 melanoma
  GI50: 237 nM
  TGI: 392 nM
SF-295 CNS
  GI50: 185 nM
  TGI: 374 nM
OVCAR-5 ovarian
  GI50: 213 nM
  TGI: 519 nM
HCC-2998 colon
  GI50: 110 nM
  TGI: 240 nM
CAKI-1 renal
  GI50: 178 nM
  TGI: 372 nM
ACHN renal
  GI50: 214 nM
  TGI: 404 nM
RXF 393 renal
  GI50: 16.7 nM
  TGI: 35.8 nM
SK-OV-3 ovarian
  GI50: 179 nM
  TGI: 390 nM
NCI-H522 lung
  GI50: 116 nM
  TGI: 244 nM
NCI-H23 lung
  GI50: 53.9 nM
  TGI: 181 nM
OVCAR-4 ovarian
  GI50: 201 nM
  TGI: 392 nM
CCRF-CEM leukemia
  GI50: 1490 nM
  TGI: 2830 nM
SNB-75 CNS
  GI50: 119 nM
  TGI: 250 nM
KM12 colon
  GI50: 1400 nM
  TGI: 3360 nM
NCI-H460 NSCLC
  GI50: 43.7 nM
  TGI: 174 nM
HL-60(TB) leukemia
  GI50: 179 nM
  TGI: 334 nM
A549 NSCLC
  GI50: 96.2 nM
  TGI: 527 nM
SNB-19 CNS
  GI50: 317 nM
  TGI: 1240 nM
BT-549 breast
  GI50: 132 nM
  TGI: 269 nM
MDA-MB-435 melanoma
  GI50: 1760 nM
  TGI: 3480 nM
